We go through two compounds from PMC3985586, “Cratoxylum formosum (Jack) Dyer ssp. pruniflorum (Kurz) Gogel. (Hóng yá mù) extract induces apoptosis in human hepatocellular carcinoma HepG2 cells through caspase-dependent pathways” (Chinese Medicine, 2014).

≈ marks a conversion by molar mass, not a printed value.

Broadly, the IC50 is the midpoint of a concentration-inhibition curve.

The test system of assay [1] is HepG2 cells. Description: Mitochondrial membrane potential (DiOC6, flow cytometry). In kind it is cell-based, human. Particulars: HepG2, 35% (v/v) H2O2 positive control, 12 and 24 h, P < 0.001. On the procedure:
Cells (1 × 10^6 cells/mL) were seeded into a 24-well plate, incubated at 37°C for 24 h, and then treated with 0, 30, 60, or 120 μg/mL of CF extract for 12 or 24 h. Concentrated hydrogen peroxide (35%, v/v) was used as a positive control. Next, the cells were washed, harvested by trypsinization, transferred to a microcentrifuge tube, and stained with a lipophilic fluorogenic dye, DiOC6, at 40 nM for 30 min in the dark at 37°C. After the incubation, the cells were immediately analyzed by flow cytometry (BD FACSCanto II, San Jose, CA, USA) for incorporation of the fluorochrome.

Assay [2] deals with HepG2 cells. Description: Neutral red cytotoxicity assay, HepG2. Format: cell-based, human. As to the method: (§1) Cell viability was measured by an NR colorimetric assay. Human HepG2 cells and normal African green monkey kidney Vero cells were used as cell models to determine the percent cytotoxicity. Briefly, cells (4 × 10^6 cells/mL) were treated with CF extract at various concentrations (10, 25, 50, 100, 250, and 500 μg/mL) and the standard anticancer drug melphalan as a positive control, while the untreated groups were exposed to fresh medium at equal volumes to those used for the treated groups. After 24 h of exposure, the cells were incubated for 2 h with NR dye (50 μg/mL) dissolved in DMEM, and then washed with phosphate-buffered saline (PBS; pH 7.4). Finally, the cells were lysed with 0.33% HCl/isopropanol. A microplate reader (Tecan, France) was used to measure the absorbances of NR dye in the viable cells at 520 and 650 (reference) nm. The percentage of cell cytotoxicity of the CF extract was calculated as described by Machana et al.[18] and compared with that of melphalan. The selectivity index (SI) was calculated to determine the selective cancer cell line cytotoxicity. The SI of the test compound was compared with the IC50 for the Vero cells divided by the IC50 for the HepG2 cells.

The next assay relates to Vero cells. Description: Neutral red cytotoxicity assay, Vero. In kind it is cell-based, African green monkey. Particulars: Chlorocebus sabaeus, 24 h, read-out: IC50 ± SD Vero. As to the method:
as §1

The test system of assay [3] is HepG2 cells. The assay is described as follows: DAPI staining apoptosis induction assay. In kind it is cell-based, human. Particulars: HepG2, 24 h, CF 120 μg/mL, melphalan 80 μg/mL (2 × IC50). As to the method:
Cells (1 × 10^6 cells/well) were treated with CF extract and the melphalan for 24 h at 2 × IC50, and the morphological changes of the induced apoptotic cells were determined by DAPI staining. The concentrations of CF extract and melphalan used in the following apoptosis experiments were 120 and 80 μg/mL, respectively. The cells were fixed in pure methanol at 4°C for 10 min, and then stained with DAPI (1 μg/mL) at room temperature in the dark. The excess dye was removed and glycerin was added to the cells with PBS at a 1:1 ratio and mixed well. Next, the cells were fixed on a slide and the apoptotic bodies observed at 40× objective magnification under an inverted fluorescence microscope (Eclipse TS100; Nikon, UK). The percentage of apoptotic cells was calculated as described by Machana et al.[18]. The average% apoptotic cells were calculated from three independent wells with 10 eye views in each well.

Consider `OO` [H2O2, hydrogen peroxide], for which the “Alteration of MMP compared to untreated cells” value with HepG2 cells [1] is “significantly different”.

As to `N[C@@H](Cc1ccc(N(CCCl)CCCl)cc1)C(=O)O` [Melphalan, melphalan], the IC50 came to 37.7 ± 9.8 µg/mL (≈ 124 µM) in the assay on HepG2 cells [2] (Homo sapiens, HepG2, 24 h, read-out: IC50 ± SD HepG2) and 59.9 ± 3.2 µg/mL (≈ 196 µM) in the assay on Vero cells. In the assay with HepG2 cells [2] (IC50 for Vero cells divided by IC50 for HepG2 cells, SI > 3 indicates high selectivity), the “Selectivity index (SI)” value was found to be 1.6. Moreover, in the assay on HepG2 cells [3], the “Percentage of apoptotic cells” value came to 41.6 ± 2.1%.
